Article PMC9981206 (Cancer Research Communications, 2022)
pIC50: −log10 of the molar value. Values joined by “and” are separate entries in the source; they are usually repeats but may differ in a detail not shown here. Equal values may be shown once. Read-outs that look alike come from different tables or passages of the source.

What was measured:
OVCAR-4 cells = assay: MTS colorimetric cell growth assay, OVCAR-4; type: cell-based, human
Description: (§1) The cell cultures were kept below 20 passages (∼10 weeks) and routinely monitored (upon thawing and monthly) for Mycoplasma infections with MycoAlert Mycoplasma Detection Kit (Lonza). All cell lines were authenticated by short tandem repeat profiling to confirm their identity (Eurofins). TNKS1/2 and PARP1 biochemical assays ([27, 32]), luciferase-based WNT/β-catenin signaling pathway reporter assay ([22, 27, 32]), anti-proliferative assays, and NCI-60 tumor cell line panel screen ([7]), immunoblot analyses ([7, 32, 39]), RNA isolation, and real-time qRT-PCR ([7, 27, 39, 40]) were performed as previously described.
(§2) Prostate (Pro) and central nervous system (CNS). […] Mean ± SD values for data from one representative experiment of more than three repeated assays, each with six replicates, are shown. C, Evaluation of WNT/β-catenin signaling. Left, immunoblots of cytoplasmic AXIN1 and nuclear active form of β-catenin [non-phospho (Ser33/37/Thr41)] and total β-catenin. Lamin B1 loading controls are duplicated for OVCAR-4 immunoblots. Right, real-time RT-qPCR analysis of the WNT/β-catenin signaling target gene AXIN2. […] Immunoblots show representative data from two or more independent experiments. Actin (cytoplasm) and lamin B1 (nucleus) were used as loading controls. […]

B16-F10 tumors = assay: B16-F10 mouse melanoma model
Method: The experiment using B16-F10 tumors was carried out as previously described ([39]) at Reaction Biology. […] Next, the mice were sacrificed, approximately 8 hours after last dosing. Protein and RNA extracts were prepared from 8 tumors within each treatment group.

[1] = system: COLO 320DM colon carcinoma cells; details: cited from earlier work
[2] = Mouse pharmacokinetic analysis; type: in vivo; details: CD-1 mice; for MRT last: read-out: MRT(0-24); for CL/F: read-out: Cl or Cl/F (converted); for bioavailability: read-out: F (fraction absorbed/bioavailability)
Method: The pharmacokinetic analyses were performed according to the standard protocols of Medicilon as previously described ([22, 27, 32]). […] The same vehicle and oral–twice daily treatment regime were used for all other experiments. Samples were collected after 15 and 30 minutes plus 1, 2, 4, and 6 hours for group 1, and after 6.5, 8, 10, and 24 hours for group 2.

[3] = Dose escalation experiment (acute toxicity, MTD); details: 500, 1,000, 1,500, or 2,000 mg/kg oral twice daily, single male CD-1 mice
Method: The dose escalation experiment was performed in single male CD-1 mice (CRL: 022, RRID: IMSR_CRL: 022, Charles River) at BSL BIOSERVICE/Eurofins using their standard protocol. […] Body weight was recorded daily.

PARP1 = PARP1 (Homo sapiens, UniProt P09874); details: biochemical assay; cited from earlier work
YAP signaling = assay: Immunoblot and real-time qRT-PCR, YAP signaling in cancer cell lines; type: cell-based, human; details: 10 nmol/L, 24 hours
Description: as §1, §2

UO-31 cells = assay: MTS colorimetric cell growth assay, UO-31; type: cell-based, human
Description: as §1, §2

MYC signaling = assay: Immunoblot and real-time qRT-PCR, MYC signaling in cancer cell lines; type: cell-based, human; details: 10 nmol/L, 24 hours, all TNKSi-sensitive cell lines
Description: as §1, §2

[4] = 28-day oral repeated dose toxicity study; type: in vivo, mice
Method: Body weight and food consumption were measured thrice weekly. For the experiment using 10 mg/kg oral–twice daily dosing, blood was collected at the end of the experiment and hematologic and clinical biochemistry analyses were performed at IDEXX according to their standard protocols. Duodenum, jejunum, ileum, colon–rectum, lymph nodes, pancreas, heart, kidney, liver, spleen, lung, prostate, and testis were collected, formalin-fixed (10%), paraffin-embedded, stained with hematoxylin and eosin (H&E), and imaged as previously described ([39]). Staining of ileums using immunofluorescence was performed as previously described ([29, 39]). […] DAPI nuclear dye [(340 nm), 1 μg/μL, D9542, Sigma Aldrich] was added to the final washing solution. […] Imaging was performed using confocal microscopy as described previously ([39]). All animal experiments were approved by local animal experiment authorities (ethics committee of the Chinese Association for Laboratory Animal Sciences, German Centre for the Protection of Laboratory Animals, and Norwegian Food Safety Authority), and were carried out in compliance with FELASA guidelines and recommendations.

ABC-1 cells = assay: MTS colorimetric cell growth assay, ABC-1; type: cell-based; details: Homo sapiens, ABC-1, 120 h
Description: as §1, §2

WNT/β-catenin signaling = assay: Immunoblot and real-time qRT-PCR, WNT/β-catenin signaling in cancer cell lines; type: cell-based, human; details: 10 nmol/L, 24 hours
Description: as §1
Prostate (Pro) and central nervous system (CNS). […] Mean ± SD values for data from one representative experiment of more than three repeated assays, each with six replicates, are shown. C, Evaluation of WNT/β-catenin signaling. Left, immunoblots of cytoplasmic AXIN1 and nuclear active form of β-catenin [non-phospho (Ser33/37/Thr41)] and total β-catenin. Lamin B1 loading controls are duplicated for OVCAR-4 immunoblots. Right, real-time RT-qPCR analysis of the WNT/β-catenin signaling target gene AXIN2. […] Immunoblots show representative data from two or more independent experiments. Actin (cytoplasm) and lamin B1 (nucleus) were used as loading controls. Boxplots show median, first, and third quartiles and maximum and minimum whiskers for combined data from three independent experiments with three replicates each. Stippled lines (black) depict control mean values = 1. Two-tailed t tests: ***, P < 0.001; **, P < 0.01; and *, P < 0.05. Mann–Whitney rank sum tests: ‡, P < 0.01. ns., not significant. D, Evaluation of YAP signaling. Left, immunoblots of cytoplasmic AMOTL2 (top) and nuclear YAP and TAZ (bottom). Right, real-time RT-qPCR analysis of the YAP signaling target genes AMOTL2, CCN1, and […]. For D and E, lamin B1 loading controls are duplicated for RKO immunoblots (YAP/TAZ and CCND1). E, Evaluation of MYC signaling. Left, immunoblots of nuclear MYC and CCND1. Lamin B1 loading controls are duplicated for ABC-1 immunoblots. […]

[5] = 10 mg/kg oral twice daily, immunoblot
[6] = mouse, plasma, 0.4 mg/kg IV BID
[7] = mouse, plasma, 100 mg/kg PO BID
[8] = 10 mg/kg oral twice daily, 28 days, CD-1 mice
[9] = 10 mg/kg oral twice daily, 28 days, CD-1 mice, clinical biochemistry
[10] = 10 mg/kg oral twice daily, 28 days, CD-1 mice, hematology

Sequence of PARP1 (P09874 whole entry): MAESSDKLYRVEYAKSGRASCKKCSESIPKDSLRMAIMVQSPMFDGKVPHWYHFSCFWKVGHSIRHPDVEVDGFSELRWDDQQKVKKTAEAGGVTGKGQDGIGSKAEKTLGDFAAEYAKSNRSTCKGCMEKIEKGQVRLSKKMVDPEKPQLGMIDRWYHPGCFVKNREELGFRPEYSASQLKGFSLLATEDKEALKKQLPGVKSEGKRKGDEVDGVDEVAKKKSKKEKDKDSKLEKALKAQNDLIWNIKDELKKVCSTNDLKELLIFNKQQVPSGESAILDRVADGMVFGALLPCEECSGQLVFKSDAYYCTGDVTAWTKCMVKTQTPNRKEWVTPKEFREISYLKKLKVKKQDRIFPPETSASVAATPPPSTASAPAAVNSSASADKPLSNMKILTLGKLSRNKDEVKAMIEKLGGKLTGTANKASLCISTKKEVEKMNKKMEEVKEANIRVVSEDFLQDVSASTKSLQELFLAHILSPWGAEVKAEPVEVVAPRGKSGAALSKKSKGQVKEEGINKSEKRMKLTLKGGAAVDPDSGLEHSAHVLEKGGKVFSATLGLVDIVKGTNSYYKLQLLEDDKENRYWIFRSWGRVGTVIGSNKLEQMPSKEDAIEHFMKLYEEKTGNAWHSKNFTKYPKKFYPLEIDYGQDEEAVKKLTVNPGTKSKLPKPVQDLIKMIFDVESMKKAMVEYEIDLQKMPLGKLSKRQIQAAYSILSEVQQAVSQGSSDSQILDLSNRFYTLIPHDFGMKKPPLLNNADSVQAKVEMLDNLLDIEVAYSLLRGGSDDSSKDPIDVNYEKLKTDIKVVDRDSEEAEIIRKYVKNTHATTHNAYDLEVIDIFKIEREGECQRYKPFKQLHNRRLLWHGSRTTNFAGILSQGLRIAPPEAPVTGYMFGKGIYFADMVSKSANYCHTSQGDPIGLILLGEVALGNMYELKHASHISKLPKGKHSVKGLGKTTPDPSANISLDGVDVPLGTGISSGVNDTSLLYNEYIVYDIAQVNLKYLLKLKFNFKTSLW

In the case of `CCOc1ccc(-c2nnc([C@H]3C[C@H](NC(=O)c4cccc5nccnc45)C3)n2-c2ccccc2F)nc1` [OM-153], the GI50 (OVCAR-4 cells; Homo sapiens, OVCAR-4, 120 h) was > 10 nM, the GI25 (OVCAR-4 cells; OVCAR-4, 5 days) was 2.5 nM and the “AXIN1 protein in tumors” value (B16-F10 tumors; [5]) was “significant stabilization”. The β-catenin in tumors (B16-F10 tumors; [5]) was “insignificant downregulation”, the “transcription of the target gene Axin2 in tumors” value (B16-F10 tumors; 10 mg/kg oral twice daily, real-time qRT-PCR) was “significantly decreased” and the “tumor end volume inhibition compared with the vehicle control” value (B16-F10 tumors; 0.1–10 mg/kg OM-153 oral twice daily in combination with anti–PD-1 (10 mg/kg i.p. day 6, 9, 12)) was 51%–65%. For the same compound, the body weights (B16-F10 tumors; any of the treatment groups, day 6 through 20) was “No alterations in body weights”, the “antitumor effect, monotherapy controls” value (B16-F10 tumors; monotherapy, 10 mg/kg) was “did not exert any significant antitumor effects” and the “COLO320DM GI25” value ([1]; 5 days of cultivation) was 2.5 nM. For the same compound, the GI50 ([1]; 5 days of cultivation, read-out: COLO320DM GI50) was 10 nM, the “COLO 320DM in vitro GI50 value” ([1]; same value as 10 nmol/L) was 5.1 ng/mL and the Cmax2 ([2]; 10 mg/kg PO BID) was 2,700 ng/mL. The “Cmax2 (plasma concentration after the second dose)” value ([2]; 10 mg/kg oral twice daily) was 5.3 µM, the “plasma concentration after 24 hours” value ([2]; 10 mg/kg oral twice daily) was “below the detection threshold” and the Cmax2 ([2]; 100 mg/kg PO BID) was 20,000 ng/mL. For the same compound, the “Cmax2 (plasma concentration after the second dose)” value ([2]; 100 mg/kg oral twice daily) was 39.2 µM, the half-life [2, 6] was 0.59 h and the MRT last [2, 6] was 3.6 h. It also gave a half-life ([2]; mouse, plasma, 2 mg/kg IV BID) of 0.56 h, an MRT last ([2]; mouse, plasma, 2 mg/kg IV BID) of 3.5 h and a half-life ([2]; mouse, plasma, 10 mg/kg PO BID) of 2.7 h. It also gave a CL/F ([2]; mouse, plasma, 10 mg/kg PO BID) of 16.7 mL/min/kg, a bioavailability ([2]; mouse, plasma, 10 mg/kg PO BID) of 100% and an MRT last ([2]; mouse, plasma, 10 mg/kg PO BID) of 5.8 h. For the same compound, the half-life [2, 7] was 5.9 h, the CL/F [2, 7] was 18.3 mL/min/kg and the bioavailability [2, 7] was 130%. The MRT last [2, 7] was 8.4 h, the concentration at 24 h ([2]; mouse, plasma, 100 mg/kg oral twice daily, read-out: plasma concentration after 24 hours) was 1900 ng/mL and 3.7 µM and the “clinical signs of systemic toxicity” value [3] was “No clinical signs of systemic toxicity”. The pIC50 (PARP1) was < 4.00, the “transcription of YAP signaling target genes AMOTL2, CCN1 and CCN2” value (YAP signaling; all TNKSi-sensitive cell lines) was “reduced transcription” and the AMOTL2 protein (YAP signaling; all cell lines) was “cytoplasmic stabilization”. For the same compound, the GI50 (UO-31 cells; Homo sapiens, UO-31, 120 h) was > 10 nM, the GI25 (UO-31 cells; UO-31, 5 days) was 3.5 nM and the “MYC and CCND1 protein and transcription of MYC and CCND1” value (MYC signaling) was “decreased”. The “clinical signs, body weight, food consumption” value [4, 8] was “no clinical signs, body weight loss, or reduced food consumption were observed”, the “histopathology of other organs” value [4, 8] was “No atypical histopathologic changes” and the overall intestinal architecture [4, 8] was “intact”. For the same compound, the “expression of the ISC marker and WNT/β-catenin signaling target gene Lgr5 in ileum” value ([4]; 10 mg/kg oral twice daily, 28 days, CD-1 mice, RNAscope) was “reduced”, the “AST, ALT and GLDH levels” value [4, 9] was “insignificant alteration” and the “magnesium, potassium, and triglycerides” value [4, 9] was “significant decreases”. The erythrocytes and hemoglobin [4, 10] was “moderate but significant reduction”, the leukocytes and reticulocytes [4, 10] was “tendency toward reduced” and the “histopathology of the other organs” value ([4]; 100 mg/kg oral twice daily, C57BL/6J mice) was “No abnormal histopathologic changes”. The small intestine histopathology ([4]; 100 mg/kg oral twice daily, C57BL/6J mice, 2 out of three mice) was “loss of villi height, width, crypt, and as well as surface epithelium, accompanied by inflammation”, the “clinical observation and body weight” value ([4]; 100 mg/kg oral twice daily, C57BL/6J mice, euthanized on day 7) was “reduced activity and body weight loss in 3 of 4 mice” and the kidney histopathology ([4]; 100 mg/kg oral twice daily, C57BL/6J mice, same mice as intestinal damage) was “signs of acute tubular damage in the kidney”. The GI50 (ABC-1 cells) was 2 nM, the “transcription of AXIN2” value (WNT/β-catenin signaling; COLO 320DM, OVCAR-4 and ABC-1 cells) was “significantly reduced” and the AXIN1 protein (WNT/β-catenin signaling; all cell lines (COLO 320DM, UO-31, OVCAR-4, ABC-1, RKO)) was “stabilized”. For the same compound, the “transcriptionally active form of β-catenin in the nuclei” value (WNT/β-catenin signaling; only in COLO 320DM and ABC-1 cells) was “reduction”.
